Measurements as given in patent US20260167623A1 (NIKANG THERAPEUTICS, INC., priority 2022, published 2026).

What was measured:
[1] = molecular target: T1, CDK2 (Homo sapiens, UniProt P24941); assay: High-throughput HTRF measurement of cellular endogenous CDK2 level (degradation, DC50/Dmax) in OVCAR3 cells, 6 h; type: cell-based; settings: 6 h compound treatment, HTRF total CDK2, read-out: DC50_OVCAR3_6h
T1 construct: High-Throughput Measurement of Cellular Endogenous CDK2; endogenous in cells; host or cells: OVCAR3
Procedure: High-Throughput Measurement of Cellular Endogenous CDK2
Effects of compounds on cellular CDK2 level were monitored by a high-throughput HTRF assay.
To determine half maximal degradation concentration (DC50) and maximum degradation level (Dmax) values of compounds, cellular CDK2 level was measured in 96-well format using HTRF total CDK2 cellular kit (Cat #64CDK2TPEG) from Cisbio.
On Day 1, OVCAR3 cells were seeded into 96-well tissue-culture treated plates at 20,000 cells/well in 200 μL and incubated overnight at 37° C. in CO2 atmosphere. On Day 2 cells were treated with compounds at concentration ranging from 0.03 to 1,000 nM using HP D300 digital dispenser. 6 hours after compound treatment, cell culture media was removed by flicking the plate and tapping the plate against clean paper towel. Immediately 30 μL 1× lysis buffer was supplemented from the kit and added to each well and the plate is incubated at room temperature on shaker for 30 min. After homogenization by pipetting up and down, 8 μL cell lysate from 96-well cell culture plate was transferred to 384-well small volume white detection plate. 2 μL premixed detection solution was added and the plate is covered with sealer. To prepare the detection solution, d2 conjugated-CDK2 antibody and Eu-cryptate conjugated CDK2 antibody were diluted into detection buffer following manufacturer's instruction. Detection plates were incubated overnight at room temperature and read on ClarioStar (BMG Labtech) in TR-FRET mode (665 nM and 620 nM). The TR-FRET ratio (665 nM/620 nM) was plotted against the compound concentration and normalized to DMSO controls (0% degradation) and lysis buffer controls (100% degradation). Half maximal degradation concentration (DC 50) […] were calculated with a four-parameter logistic fit using GraphPad Prism (version 8; La Jolla, CA).
In the table below, AA indicates a DC50 of greater than or equal to 0.5 nM but less than 1 nM; A indicates a DC50 of greater than or equal to 1 nM but less than or equal to 10 nM; B indicates a DC50 of greater than 10 nM but less than or equal to 100 nM; C indicates a DC50 of greater than 100 nM but less than or equal to 1 μM; and D indicates a DC50 of greater than 1 μM […] but less than or equal to 5 μM. NT means not tested.

[2] = molecular target: T1, CDK2; assay: Inhibition of CDK2: phospho-Rb (S807/811) HTRF measurement in OVCAR3 cells, 24 h; type: cell-based; settings: 24 h compound treatment, read-out: pRB_OVCAR3_24h
Outline: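 OVCAR3 cells, seeded overnight, were exposed to compounds at 0.3 to 10,000 nM for 24 h, then lysed. Rb S807/811 phosphorylation read by HTRF (665/620 nm ratio) after 4 h detection at room temperature; data normalized to DMSO and IC50 from four-parameter logistic fit.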

| SMILES | DC50 [1] | IC50 [2] |
| --- | --- | --- |
| Cn1nc(N2CCC(=O)NC2=O)c2ccc(C3CCN(CCc4cccc(S(=O)(=O)N5CCC(Nc6ncc(C(F)(F)F)cn6)CC5)c4)CC3)cc21 [Example 6, 1-(1-methyl-6-(1-(3-((4-((5-(trifluoromethyl)pyrimidin-2-yl)amino)-piperidin-1-yl)sulfonyl)phenethyl)piperidin-4-yl)-1H-indazol-3-yl)dihydropyrimidine-2,4(1H,3H)-dione] | 100 to 1000 nM | 1 to 100 nM |
| Cc1ncsc1-c1ccc([C@H](C)NC(=O)[C@@H]2C[C@@H](O)CN2C(=O)[C@H](NC(=O)C2CCN(Cc3cccc(S(=O)(=O)N4CCC(Nc5ncc(C(F)(F)F)cn5)CC4)c3)CC2)C(C)(C)C)cc1 [Example 7, N-((R)-1-((2S,4R)-4-hydroxy-2-(((S)-1-(4-(4-methylthiazol-5-yl)phenyl)ethyl)-carbamoyl)pyrrolidin-1-yl)-3,3-dimethyl-1-oxobutan-2-yl)-1-(3-((4-((5-(trifluoro-methyl)pyrimidin-2-yl)amino)piperidin-1-yl)sulfonyl)benzyl) piperidine-4-carboxamide] | 100 to 1000 nM | 100 to 500 nM |
| Cc1ncsc1-c1ccc([C@H](C)NC(=O)[C@@H]2C[C@@H](O)CN2C(=O)[C@@H](NC(=O)C2(F)CC2)C(C)(C)SCC2CCN(Cc3cccc(S(=O)(=O)N4CCC(Nc5ncc(C(F)(F)F)cn5)CC4)c3)CC2)cc1 [Example 8, (2S,4R)-1-((R)-2-(1-fluorocyclopropane-1-carboxamido)-3-methyl-3-(((1-(3-((4-((5-(trifluoromethyl)pyrimidin-2-yl)amino)-piperidin-1-yl)sulfonyl)benzyl)piperidin-4-yl)methyl)thio)butanoyl)-4-hydroxy-N-((S)-1-(4-(4-methylthiazol-5-yl)phenyl)-ethyl)pyrrolidine-2-carboxamide] | 1 to 10 nM | 100 to 500 nM |
| Cn1nc(N2CCC(=O)NC2=O)c2ccc(C3CCN(Cc4cccc(S(=O)(=O)N5CCC(Nc6ncc(Cl)cn6)CC5)c4)CC3)cc21 [Example 11, 1-(6-(1-(3-((4-((5-chloropyrimidin-2-yl)amino)piperidin-1-yl)sulfonyl)benzyl)-piperidin-4-yl)-1-methyl-1H-indazol-3-yl)dihydropyrimidine-2,4(1H,3H)-dione] | 1 to 10 nM | 100 to 500 nM |
| Cn1nc(N2CCC(=O)NC2=O)c2cc(F)c(C3CCN(Cc4cccc(S(=O)(=O)N5CCC(Nc6ncc(C(F)(F)F)cn6)CC5)c4)CC3)cc21 [Example 16, 1-(5-fluoro-1-methyl-6-(1-(3-((4-((5-(trifluoromethyl)pyrimidin-2-yl)amino)-piperidin-1-yl)sulfonyl)benzyl)piperidin-4-yl)-1H-indazol-3-yl)dihydropyrimidine-2,4(1H,3H)-dione] | 10 to 100 nM | 1 to 100 nM |
| Cn1nc(N2CCC(=O)NC2=O)c2cc(F)c(C3CCN(Cc4cccc(S(=O)(=O)N5CCC(Nc6ncc(Cl)cn6)CC5)c4)CC3)cc21 [Example 23, 1-(6-(1-(3-((4-((5-chloropyrimidin-2-yl)amino)piperidin-1-yl)sulfonyl)benzyl)-piperidin-4-yl)-5-fluoro-1-methyl-1H-indazol-3-yl)dihydropyrimidine-2,4(1H,3H)-dione] | 10 to 100 nM | 100 to 500 nM |
| Cn1nc(N2CCC(=O)NC2=O)c2ccc(C3CCN(Cc4cccc(S(=O)(=O)N5CCC(Nc6ncc(Br)cn6)CC5)c4)CC3)cc21 [Example 24, 1-(6-(1-(3-((4-((5-bromopyrimidin-2-yl)amino)piperidin-1-yl)sulfonyl)benzyl)-piperidin-4-yl)-1-methyl-1H-indazol-3-yl)dihydropyrimidine-2,4(1H,3H)-dione] | 1 to 10 nM | 100 to 500 nM |
| Cn1nc(N2CCC(=O)NC2=O)c2ccc(C3CCN(Cc4cccc(S(=O)(=O)N5CC[C@H](Nc6ncc(Cl)cn6)[C@H](F)C5)c4)CC3)cc21 [Example 27] | 10 to 100 nM | 100 to 500 nM |
| CC(Cc1cccc(S(=O)(=O)N2CCC(Nc3ncc(C(F)(F)F)cn3)CC2)c1)CN1CCC(c2ccc3c(N4CCC(=O)NC4=O)nn(C)c3c2)CC1 (stereo not drawn) [Example 29] | 1 to 10 nM | 1 to 100 nM |
| Cn1nc(N2CCC(=O)NC2=O)c2ccc(C3CCN(Cc4cccc(S(=O)(=O)N5CCC(Nc6ncc(Cl)cn6)CC5)c4)CC3(F)F)cc21 (stereo not drawn) [Example 33, 1-(6-(1-(3-((4-((5-chloropyrimidin-2-yl)amino)piperidin-1-yl)sulfonyl)benzyl)-3,3-difluoropiperidin-4-yl)-1-methyl-1H-indazol-3-yl)dihydropyrimidine-2,4(1H,3H)-dione] | 10 to 100 nM | 100 to 500 nM |
| Cn1nc(N2CCC(=O)NC2=O)c2ccc(C3CCN(Cc4cccc(S(=O)(=O)N5CCC(Nc6ncc(OC(F)F)cn6)CC5)c4)CC3)cc21 [Example 35, 1-(6-(1-(3-((4-((5-(difluoromethoxy)-pyrimidin-2-yl)amino)piperidin-1-yl)sulfonyl)benzyl)piperidin-4-yl)-1-methyl-1H-indazol-3-yl)dihydropyrimidine-2,4(1H,3H)-dione] | 10 to 100 nM | 1 to 100 nM |
| CC(c1cccc(S(=O)(=O)N2CCC(Nc3ncc(Cl)cn3)CC2)c1)N1CCC(c2ccc3c(N4CCC(=O)NC4=O)nn(C)c3c2)CC1 (stereo not drawn) [Example 38] | 10 to 100 nM | 100 to 500 nM |
| Cn1nc(N2CCC(=O)NC2=O)c2ccc(C3CCN(CC4CCN(c5cccc(S(=O)(=O)N6CCC(Nc7ncc(C(F)(F)F)cn7)CC6)c5)CC4)CC3)cc21 [Example 40, 1-(1-methyl-6-(1-((1-(3-((4-((5-(trifluoro-methyl)pyrimidin-2-yl)amino)piperidin-1-yl)sulfonyl)phenyl)piperidin-4-yl)methyl)piperidin-4-yl)-1H-indazol-3-yl)dihydropyrimidine-2,4(1H,3H)-dione] | 1 to 10 nM | 1 to 100 nM |
| O=C1CCC(N2Cc3cc(N4CCN(Cc5cccc(S(=O)(=O)N6CCC(Nc7ncc(C(F)(F)F)cn7)CC6)c5)CC4)c(F)cc3C2=O)C(=O)N1 (stereo not drawn) [Example 42, 3-(6-fluoro-1-oxo-5-(4-(3-((4-((5-(trifluoro-methyl)pyrimidin-2-yl)amino)piperidin-1-yl)sulfonyl)benzyl)piperazin-1-yl)isoindolin-2-yl)piperidine-2,6-dione] | 1 to 10 nM | 1 to 100 nM |
| O=C1CCC(N2Cc3cc(N4CCN(Cc5cccc(S(=O)(=O)N6CCC(Nc7ncc(OC(F)F)cn7)CC6)c5)CC4)c(F)cc3C2=O)C(=O)N1 (stereo not drawn) [Example 43, 3-(5-(4-(3-((4-((5-(difluoromethoxy)-pyrimidin-2-yl)amino)piperidin-1-yl)sulfonyl)benzyl)piperazin-1-yl)-6-fluoro-1-oxoisoindolin-2-yl)piperidine-2,6-dione] | 10 to 100 nM | 100 to 500 nM |
| Cn1c(S(=O)(=O)N2CCC(Nc3ncc(C(F)(F)F)cn3)CC2)cnc1CN1CCC(c2ccc3c(N4CCC(=O)NC4=O)nn(C)c3c2)CC1 [Example 47, 1-(1-methyl-6-(1-((1-methyl-5-((4-((5-(trifluoromethyl)pyrimidin-2-yl)amino)-piperidin-1-yl)sulfonyl)-1H-imidazol-2-yl)methyl)piperidin-4-yl)-1H-indazol-3-yl)dihydropyrimidine-2,4(1H,3H)-dione] | 10 to 100 nM | 1 to 100 nM |
| CC(Cc1cccc(S(=O)(=O)N2CCC(Nc3ncc(Cl)cn3)CC2)c1)CN1CCC(c2ccc3c(N4CCC(=O)NC4=O)nn(C)c3c2)CC1 (stereo not drawn) [Example 53, 1-(6-(1-(3-(3-((4-((5-chloropyrimidin-2-yl)amino)piperidin-1-yl)sulfonyl)phenyl)-2-methylpropyl)piperidin-4-yl)-1-methyl-1H-indazol-3-yl)dihydropyrimidine-2,4(1H,3H)-dione] | 10 to 100 nM | 1 to 100 nM |
| Cn1nc(N2CCC(=O)NC2=O)c2ccc(C3CCN(CC(C)(C)Cc4cccc(S(=O)(=O)N5CCC(Nc6ncc(Cl)cn6)CC5)c4)CC3)cc21 [Example 54, 1-(6-(1-(3-(3-((4-((5-chloropyrimidin-2-yl)amino)piperidin-1-yl)sulfonyl)phenyl)-2,2-dimethylpropyl)piperidin-4-yl)-1-methyl-1H-indazol-3-yl)dihydropyrimidine-2,4(1H,3H)-dione] | 1 to 10 nM | 1 to 100 nM |
